How the values were obtained:
Format in all cases: in vivo
Stellaria media [1] = assay: Pre-emergence herbicidal test, STEME; parameters: key to herbicidal effect (0-9 scale) STEME / herbicidal rating STEME: A rating 0 indicates growth as untreated control; a rating 9 indicates death; conditions: PRE, 21 days after spraying
Procedure: (§1) To evaluate their herbicidal activity, compounds according to the invention are tested using a representative range of plants:
(§2) The pre-emergence tests involve spraying a liquid formulation of the compound onto the soil in which the seeds of the plant species mentioned above has recently been sown.
(§3) The soil used in the tests is a prepared horticultural loam. The formulations used in the tests are prepared from solutions of the test compounds in acetone containing 0.4% by weight of an alkylphenol/ethylene oxide condensate available under the trade mark TRITON X-155. […] In these tests untreated sown soil are used as controls.
(§4) The herbicidal effects of the test compounds are assessed visually twenty-one days after spraying the foliage and the soil and are recorded on a 0-9 scale. A rating 0 indicates growth as untreated control, a rating 9 indicates death. An increase of 1 unit on the linear scale approximates to a 10% increase in the level of effect.

Ipomoea hederacea [2] = assay: Post-emergence herbicidal test, IPOHE; parameters: key to herbicidal effect (0-9 scale) IPOHE / herbicidal rating IPOHE: A rating 0 indicates growth as untreated control; a rating 9 indicates death; conditions: POST, 21 days after spraying
Procedure: as §1
(§5) […] After spraying, the plants are placed on greenhouse benches and are cared for in the usual manner, commensurate with conventional greenhouse practices.
as §4

Setaria viridis [3] = assay: Post-emergence herbicidal test, SETVI; parameters: key to herbicidal effect (0-9 scale) SETVI / herbicidal rating SETVI: A rating 0 indicates growth as untreated control; a rating 9 indicates death; conditions: POST, 21 days after spraying
Procedure: as §1, §5, §4

Alopecurus myosuroides [4] = assay: Pre-emergence herbicidal test, ALOMY; parameters: key to herbicidal effect (0-9 scale) ALOMY / herbicidal rating ALOMY: A rating 0 indicates growth as untreated control; a rating 9 indicates death; conditions: PRE, 21 days after spraying
Procedure: as §1, §2, §3, §4

Hordeum vulgare [5] = assay: Pre-emergence herbicidal test, HORVW; parameters: key: A rating 0 indicates growth as untreated control; a rating 9 indicates death; conditions: 21 days after spraying
Procedure: as §1, §2, §3, §4

Matricaria inodora [6] = assay: Pre-emergence herbicidal test, MATIN; parameters: key to herbicidal effect (0-9 scale) MATIN / herbicidal rating MATIN: A rating 0 indicates growth as untreated control; a rating 9 indicates death; conditions: PRE, 21 days after spraying
Procedure: as §1, §2, §3, §4

Glycine max [7] = assay: Post-emergence herbicidal test, GLXMA; parameters: key: A rating 0 indicates growth as untreated control; a rating 9 indicates death; conditions: 21 days after spraying
Procedure: as §1, §5, §4

Ipomoea hederacea [8] = assay: Pre-emergence herbicidal test, IPOHE; parameters: key: A rating 0 indicates growth as untreated control; a rating 9 indicates death; conditions: 21 days after spraying
Procedure: as §1, §2, §3, §4

Echinochloa crus-galli [9] = assay: Post-emergence herbicidal test, ECHCG; parameters: key: A rating 0 indicates growth as untreated control; a rating 9 indicates death; conditions: 21 days after spraying
Procedure: as §1, §5, §4

Galium aparine [10] = assay: Post-emergence herbicidal test, GALAP; parameters: key to herbicidal effect (0-9 scale) GALAP / herbicidal rating GALAP: A rating 0 indicates growth as untreated control; a rating 9 indicates death; conditions: POST, 21 days after spraying
Procedure: as §1, §5, §4

Glycine max [11] = assay: Pre-emergence herbicidal test, GLXMA; conditions: PRE, 21 days after spraying
Procedure: as §1, §2, §3, §4

Setaria viridis [12] = assay: Pre-emergence herbicidal test, SETVI; parameters: key to herbicidal effect (0-9 scale) SETVI / herbicidal rating SETVI: A rating 0 indicates growth as untreated control; a rating 9 indicates death; conditions: PRE, 21 days after spraying
Procedure: as §1, §2, §3, §4

Abutilon theophrasti [13] = assay: Pre-emergence herbicidal test, ABUTH; parameters: key to herbicidal effect (0-9 scale) ABUTH / herbicidal rating ABUTH: A rating 0 indicates growth as untreated control; a rating 9 indicates death; conditions: PRE, 21 days after spraying
Procedure: as §1, §2, §3, §4

Abutilon theophrasti [14] = assay: Post-emergence herbicidal test, ABUTH; parameters: key to herbicidal effect (0-9 scale) ABUTH / herbicidal rating ABUTH: A rating 0 indicates growth as untreated control; a rating 9 indicates death; conditions: POST, 21 days after spraying
Procedure: as §1, §5, §4

Galium aparine [15] = assay: Pre-emergence herbicidal test, GALAP; parameters: key to herbicidal effect (0-9 scale) GALAP / herbicidal rating GALAP: A rating 0 indicates growth as untreated control; a rating 9 indicates death; conditions: PRE, 21 days after spraying
Procedure: as §1, §2, §3, §4

Zea mays [16] = assay: Pre-emergence herbicidal test, ZEAMX; parameters: key to herbicidal effect (0-9 scale) ZEAMX / herbicidal rating ZEAMX: A rating 0 indicates growth as untreated control; a rating 9 indicates death; conditions: PRE, 21 days after spraying
Procedure: as §1, §2, §3, §4

Triticum aestivum [17] = assay: Pre-emergence herbicidal test, TRZAW; parameters: key: A rating 0 indicates growth as untreated control; a rating 9 indicates death; conditions: 21 days after spraying
Procedure: as §1, §2, §3, §4

Matricaria inodora [18] = assay: Post-emergence herbicidal test, MATIN; parameters: key to herbicidal effect (0-9 scale) MATIN / herbicidal rating MATIN: A rating 0 indicates growth as untreated control; a rating 9 indicates death; conditions: POST, 21 days after spraying
Procedure: as §1, §5, §4

Triticum aestivum [19] = assay: Post-emergence herbicidal test, TRZAW; conditions: POST, 21 days after spraying
Procedure: as §1, §5, §4

Zea mays [20] = assay: Post-emergence herbicidal test, ZEAMX; parameters: key: A rating 0 indicates growth as untreated control; a rating 9 indicates death; conditions: 21 days after spraying
Procedure: as §1, §5, §4

Alopecurus myosuroides [21] = assay: Post-emergence herbicidal test, ALOMY; parameters: key: A rating 0 indicates growth as untreated control; a rating 9 indicates death; conditions: 21 days after spraying
Procedure: as §1, §5, §4

Hordeum vulgare [22] = assay: Post-emergence herbicidal test, HORVW; conditions: 21 days after spraying
Procedure: as §1
These acetone solutions are diluted with water and the resulting formulations applied at dosage levels equivalent to about 1000, 800, 400, 250 or 100 g/ha per hectare of test compound per pot. After spraying, the plants are placed on greenhouse benches and are cared for in the usual manner, commensurate with conventional greenhouse practices.
as §4

Stellaria media [23] = assay: Post-emergence herbicidal test, STEME; parameters: key to herbicidal effect (0-9 scale) STEME / herbicidal rating STEME: A rating 0 indicates growth as untreated control; a rating 9 indicates death; conditions: POST, 21 days after spraying
Procedure: as §1, §5, §4

Echinochloa crus-galli [24] = assay: Pre-emergence herbicidal test, ECHCG; parameters: key: A rating 0 indicates growth as untreated control; a rating 9 indicates death; conditions: 21 days after spraying
Procedure: as §1, §2, §3, §4

## COc1ccc2ccn(-n3c(=O)cc(C(F)(F)F)n(C)c3=O)c2c1 [Example 1, 6-Methoxy-1-(3-methyl-4-trifluoromethylpyrimidin-2,6-dion-1-yl)-indole]
Stellaria media [1]; 250 g/ha
  herbicidal effect (0-9 scale) STEME: 9
Stellaria media [1]; 1000 g/ha
  herbicidal effect (0-9 scale) STEME: 9
Ipomoea hederacea [2]; 250 g/ha
  herbicidal effect (0-9 scale) IPOHE: 9
Ipomoea hederacea [2]; 1000 g/ha
  herbicidal effect (0-9 scale) IPOHE: 9
Setaria viridis [3]; 250 g/ha
  herbicidal effect (0-9 scale) SETVI: 9
Setaria viridis [3]; 1000 g/ha
  herbicidal effect (0-9 scale) SETVI: 9
Alopecurus myosuroides [4]; 250 g/ha
  herbicidal effect (0-9 scale) ALOMY: 9
Alopecurus myosuroides [4]; 1000 g/ha
  herbicidal effect (0-9 scale) ALOMY: 9
Hordeum vulgare [5]; 250 g/ha
  herbicidal effect (0-9 scale) HORVW: 7
Hordeum vulgare [5]; 1000 g/ha
  herbicidal effect (0-9 scale) HORVW: 9
Matricaria inodora [6]; 250 g/ha
  herbicidal effect (0-9 scale) MATIN: 9
Matricaria inodora [6]; 1000 g/ha
  herbicidal effect (0-9 scale) MATIN: 9
Glycine max [7]; 250 g/ha
  herbicidal effect (0-9 scale) GLXMA: 9
Glycine max [7]; 1000 g/ha
  herbicidal effect (0-9 scale) GLXMA: 9
Ipomoea hederacea [8]; 250 g/ha
  herbicidal effect (0-9 scale) IPOHE: 8
Ipomoea hederacea [8]; 1000 g/ha
  herbicidal effect (0-9 scale) IPOHE: 9
Echinochloa crus-galli [9]; 250 g/ha
  herbicidal effect (0-9 scale) ECHCG: 9
Echinochloa crus-galli [9]; 1000 g/ha
  herbicidal effect (0-9 scale) ECHCG: 9
Galium aparine [10]; 250 g/ha
  herbicidal effect (0-9 scale) GALAP: 9
Galium aparine [10]; 1000 g/ha
  herbicidal effect (0-9 scale) GALAP: 9
Glycine max [11]; 250 g/ha
  herbicidal effect (0-9 scale) GLXMA: 6
Glycine max [11]; 1000 g/ha
  herbicidal effect (0-9 scale) GLXMA: 6
Setaria viridis [12]; 250 g/ha
  herbicidal effect (0-9 scale) SETVI: 9
Setaria viridis [12]; 1000 g/ha
  herbicidal effect (0-9 scale) SETVI: 9
Abutilon theophrasti [13]; 250 g/ha
  herbicidal effect (0-9 scale) ABUTH: 9
Abutilon theophrasti [13]; 1000 g/ha
  herbicidal effect (0-9 scale) ABUTH: 9
Abutilon theophrasti [14]; 250 g/ha
  herbicidal effect (0-9 scale) ABUTH: 9
Abutilon theophrasti [14]; 1000 g/ha
  herbicidal effect (0-9 scale) ABUTH: 9
Galium aparine [15]; 250 g/ha
  herbicidal effect (0-9 scale) GALAP: 9
Galium aparine [15]; 1000 g/ha
  herbicidal effect (0-9 scale) GALAP: 9
Zea mays [16]; 250 g/ha
  herbicidal effect (0-9 scale) ZEAMX: 8
Zea mays [16]; 1000 g/ha
  herbicidal effect (0-9 scale) ZEAMX: 9
Triticum aestivum [17]; 250 g/ha
  herbicidal effect (0-9 scale) TRZAW: 8
Triticum aestivum [17]; 1000 g/ha
  herbicidal effect (0-9 scale) TRZAW: 9
Matricaria inodora [18]; 250 g/ha
  herbicidal effect (0-9 scale) MATIN: 8
Matricaria inodora [18]; 1000 g/ha
  herbicidal effect (0-9 scale) MATIN: 9
Triticum aestivum [19]; 250 g/ha
  herbicidal effect (0-9 scale) TRZAW: 6
Triticum aestivum [19]; 1000 g/ha
  herbicidal effect (0-9 scale) TRZAW: 8
Zea mays [20]; 250 g/ha
  herbicidal effect (0-9 scale) ZEAMX: 9
Zea mays [20]; 1000 g/ha
  herbicidal effect (0-9 scale) ZEAMX: 9
Alopecurus myosuroides [21]; 250 g/ha
  herbicidal effect (0-9 scale) ALOMY: 9
Alopecurus myosuroides [21]; 1000 g/ha
  herbicidal effect (0-9 scale) ALOMY: 9
Hordeum vulgare [22]; 250 g/ha
  herbicidal effect (0-9 scale) HORVW: 8
Hordeum vulgare [22]; 1000 g/ha
  herbicidal effect (0-9 scale) HORVW: 8
Stellaria media [23]; 250 g/ha
  herbicidal effect (0-9 scale) STEME: 9
Stellaria media [23]; 1000 g/ha
  herbicidal effect (0-9 scale) STEME: 9
Echinochloa crus-galli [24]; 250 g/ha
  herbicidal effect (0-9 scale) ECHCG: 9
Echinochloa crus-galli [24]; 1000 g/ha
  herbicidal effect (0-9 scale) ECHCG: 9

Reference: patent publication US6376426B1, “Herbicidal 3-(heterocycl-1-yl)-uracils” (BASF Aktiengesellschaft, priority 1999, dated 2002)
